Measurements taken from patent US20230138327A1, “COMPOSITIONS AND METHODS CONTAINING REDUCED NICOTINAMIDE RIBOSIDE FOR PREVENTION AND TREATMENT OF PANCREATIC DISEASES AND CONDITIONS” (SOCIETE DES PRODUITS NESTLE S.A., priority 2020, published 2023).

Columns and labels:
[1] = Circulating NRH, NR and NAM in mice after intraperitoneal injection; format: in vivo
Text: (§1) Levels of NRH and other NAD-related metabolites in biological samples were obtained by using a cold liquid-liquid extraction using a mixture of methanol:water:chloroform in 5:3:5 (v/v), from which the polar phase was recovered for hydrophilic interaction ultra-high performance liquid chromatography mass spectrometry (UHPLC-MS) analysis. The UHPLC consisted of a binary pump, a cooled autosampler, and a column oven (DIONEX Ultimate 3000 UHPLC+ Focused, Thermo Scientific), connected to a triple quadrupole spectrometer (TSQ Vantage, Thermo Scientific) equipped with a heated electrospray ionisation (H-ESI) source. Of each sample, 2 μL were injected into the analytical column (2.1 mm×150 mm, 5 μm pore size, 200 Å HILICON iHILIC®-Fusion(P)), guarded by a pre-column (2.1 mm×20 mm, 200 Å HILICON iHILIC®-Fusion(P) Guard Kit) operating at 35° C. The mobile phase (10 mM ammonium acetate at pH 9, A, and acetonitrile, B) was pumped at 0.25 mL/min flow rate over a linear gradient of decreasing organic solvent (0.5-16 min, 90-25% B), followed by re-equilibration for a total run time of 30 min. The MS operated in positive mode at 3500 V with multiple reaction monitoring (MRM). The software Xcalibur v4.1.31.9 (Thermo Scientific) was used for instrument control, data acquisition and processing. Retention time and mass detection was confirmed by authentic standards.
(§2) The above results prompted us to test whether NRH could act as an effective NAD+ precursor in vivo. For this, we first intraperitoneally (IP) injected mice with either NR or NRH (500 mg/kg). […] Importantly, NRH was detectable in circulation after IP injection.

mice [2] = test: Tissue NAD+ levels in mice after intraperitoneal injection; format: in vivo; conditions: IP 500 mg/kg, after 1 h
Method: as §2

INS-1E cells [3] = test: Oxidative stress (H2O2)-induced pancreatic β-cell death, cell viability; format: cell-based; conditions: H2O2 0.4 mM, 24 hours, NRH 0.1 mM
Method: (§3) INS-1E cells were treated with hydrogen peroxide (H2O2; 0.4 mM) for 24 hrs in the presence or absence of NRH (0.1 mM). PBS was used as vehicle for NRH. After 24 hrs, cell viability was evaluated by lumiscence using a commercial kit (Cell Title-Glow; Promega). All results are expressed as mean+/−SEM of n=5 experiments. * indicates P<0.05 vs. the respective vehicle treated group.
INS-1E cells were treated with hydrogen peroxide (H2O2; 0.4 mM) for 24 hours in the presence or absence of NRH (0.1 mM). PBS was used as vehicle for NRH. After 24 hours, cell viability was evaluated by luminescence using a commercial kit (Cell Title-Glow; Promega).

mice [4] = test: Pancreas NAD+ levels in mice after intraperitoneal administration; format: in vivo; conditions: I.P. 500 mg/kg, after 1 hour
Method: 8 week-old C57BI/6NTac mice were intraperitoneally administered with either saline (as vehicle) or NRH (500 mg/kg). After 1 hour, pancreas NAD+ was measured using commercial kits. All results are expressed as mean+/−SEM of n=4 mice per group, corrected by weight of tissue.

INS1-cells = test: NAD+ levels in INS1-cells after NRH treatment; format: cell-based
[5] = Method: NR degradation to NAM has been proposed as a limitation for its pharmacological efficacy. To evaluate whether NRH was also susceptible to degradation to NAM, we spiked NRH or NR in isolated mouse plasma. […] We also tested the stability of NRH in other matrixes. […] Finally, we also certified NRH stability in water (pH=7, at room temperature) for 48 h.
[6] = Plasma NRH, NR and NAM in mice after oral administration; format: in vivo
Text: as §1
Oral administration of NRH led to very similar results to those observed after IP administration. […] NRH was detectable in plasma 1 h after oral administration. In contrast, NR levels were undetectable at 1 h after NR administration.

INS-1E cells [7] = test: Inflammatory cytokine (IL-1 b)-induced pancreatic β-cell death, cell viability; format: cell-based; conditions: IL-1 b 0.25 ng/ml, 24 hours, NRH 0.1 mM
Method: as §3, with “Interleukin 1 b (IL-1 b; 0.25 ng/ml)” for “hydrogen peroxide (H2O2; 0.4 mM)”, “luminescence” for “lumiscence”, “n=6” for “n=5”
INS-1E cells were treated with Interleukin 1 b (IL-1 b; 0.25 ng/ml) for 24 hours in the presence or absence of NRH (0.1 mM). PBS was used as vehicle for NRH. After 24 hours, cell viability was evaluated by luminescence using a commercial kit (Cell Title-Glow; Promega).

[8] = tested on: primary hepatocytes from control or NRK1 knockout (NRK1KO) mice; test: NAD+ levels in primary hepatocytes from control or NRK1 knockout mice; format: cell-based; conditions: 1 hour of treatment
Text: The action of NRH was also NAMPT-independent, based on experiments using FK866, a NAMPT inhibitor. If NRH led to NAD+ synthesis via the formation of NMNH, this hypothetical path would require the phosphorylation of NRH into NMNH. Given the essential and rate-limiting role of NRK1 in NR phosphorylation, we wondered whether the ability of NRH to boost NAD+ levels was NRK1 dependent. To answer this question, we evaluated NRH action in primary hepatocytes from either control or NRK1 knockout (NRK1KO) mice. […] Further, they rule out the possibility that NRH-induced NAD+ […] is driven by NRH oxidation into NR.

Structure (SMILES): NC(=O)C1=CN([C@@H]2O[C@H](CO)[C@@H](O)[C@H]2O)C=CC1 [NRH]
- NAM levels in circulation ([1]; mice, IP 500 mg/kg): only a very mild increase
- NR in circulation ([1]; mouse, in vivo, ip): much higher levels than those detected after NR injection itself
- NRH in circulation ([1]; mouse, in vivo, ip): detectable
- NAD+ levels in kidney (mice [2]): increased NAD+ levels
- NAD+ levels in liver (mice [2]): increased NAD+ levels
- NAD+ levels in muscle (mice [2]): increased NAD+ levels
- Cell viability under hydrogen peroxide (INS-1E cells [3]): protects against oxidative stress-induced pancreatic β-cell death
- NAD+ levels in the pancreas (mice [4]): efficiently increases NAD+ levels
- NAD+ levels (INS1-cells): highly elevated
- Degradation to NAM in FBS supplemented media [5]: did not degrade to NAM
- NRH concentration in plasma ([6]; mice, after oral gavage): 11.16 ± 1.74 µM
- Administered compound in plasma ([6]; mouse, in vivo, po): detectable
- Cell viability under Interleukin 1 b (INS-1E cells [7]): protects against inflammatory citokyne-induced pancreatic β-cell death
- NAD+ levels in NRK1KO derived primary hepatocytes [8]: not affected by NRK1 deficiency
